We go through 14 molecules from PubChem BioAssay (NCI).

Several values for one entry are separate records, joined by “and”; a condition that tells them apart may be missing. Identical values can stand only once.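 Following 48 hours of exposure in 96-well plates, responses at five concentrations were used to interpolate endpoints linearly. The concentration for 50% growth inhibition is given as GI50. The concentration for full growth arrest is given as TGI.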 Bounds are passed on as bounds.

Common to all, as to assay: NCI anticancer screen, dose series, 48 h
The subject of experiment [1] is MOLT-4 leukemia.
In experiment [2] the test system is CCRF-CEM leukemia.
The test system of experiment [3] is UACC-62 melanoma.
For experiment [4], the system named is U251 CNS.
The test system of experiment [5] is SK-OV-3 ovarian.
Experiment [6] relates to SR leukemia.
Experiment [7] deals with MDA-MB-435.
Experiment [8] concerns SK-MEL-2 melanoma.
Experiment [9] relates to KM12 colon.
The subject of experiment [10] is HOP-92 NSCLC.

As for `COc1ccc(NC(=O)CC(=O)n2nc(C)c(N=Nc3cccc(C)c3)c2C)cc1`, the TGI in [1] is over 100 µM; in [2], over 100 µM; in [3], over 100 µM; in experiment [4], over 100 µM; in experiment [5], 78.7 µM; in experiment [6] it was over 100 µM. Moreover, the TGI in experiment [7], in [8], in experiment [9] and in experiment [10] was over 100 µM each time.

In the case of `CCCC(O)c1cn(C(NC(=O)c2ccccc2)P(=O)(OCC)OCC)nn1` (configuration not stated), the TGI in [1], in experiment [2], in experiment [3], in experiment [4], in experiment [6] and in experiment [7] was over 100 µM in each case. For the same molecule, the TGI in experiment [8], in [9] and in experiment [10] was over 100 µM in each case.

Regarding `Cc1c(-c2ccccc2)nn2cc(-c3ccccc3)nnc12`, the TGI in [1] is over 100 µM; in [2] it was over 100 µM; in experiment [3], 92.3 µM; in experiment [4] it was 85.7 µM; in experiment [5], over 100 µM; in [6] it was over 100 µM. The TGI in experiment [7] was over 100 µM; in [8], 47 µM; in [9] it was over 100 µM; in [10] it was 88.3 µM.

As to `CC(=O)OCc1cncn1S(=O)(=O)c1ccc(C)cc1`, the TGI in experiment [1], in experiment [2], in experiment [3], in [4], in experiment [5] and in experiment [6] was over 100 µM in each case. Also, the TGI was over 78.9 µM in experiment [7], over 100 µM in experiment [8], over 100 µM in [9] and over 100 µM in experiment [10].

Consider `CCOC(=O)c1c(Br)c(-c2ccc(OC)cc2)c(Br)n1C`, for which the GI50 in [1] was 17.8 µM; in experiment [3], 13 µM; in experiment [6] it was 13.3 µM; in experiment [7] it was 4.47 µM; in experiment [10], 0.0721 µM. Further, the TGI was over 100 µM in [1]; 40.2 µM in experiment [2]; 47.6 µM in [3]; over 100 µM in experiment [4]; over 100 µM in [5]; 78.3 µM in experiment [6]. Moreover, the TGI is 7.71 µM and 29.3 µM in experiment [7]; 39.1 µM in experiment [8]; 38.1 µM in experiment [9]; 14.1 µM in experiment [10].

For `CC(=O)OC(Cc1ccc2ccccc2n1)(C(F)(F)F)C(F)(F)F`, the TGI worked out at 16 µM in experiment [1]; 1.95 µM in experiment [2]; 2.93 µM in experiment [3]; 18.2 µM in [4]; 33 µM in [5]; 3.55 µM in experiment [7]. Also, the results for the TGI in experiment [8], in experiment [9] and in experiment [10] were 4.36 µM, 12.7 µM and 0.933 µM, respectively.

In the case of `CC(=O)c1ccccc1NCC(=O)Nn1cnc2ccc(S(=O)(=O)Nc3ccccc3C(C)=O)cc2c1=O`, the TGI in experiment [1], in experiment [2], in [3], in experiment [4], in [5] and in [6] was over 100 µM in each case. The TGI in experiment [7], in experiment [8], in experiment [9] and in experiment [10] was over 100 µM throughout.

Regarding `COc1ccc(/C=C2\CCS(=O)(=O)c3ccccc3C2=O)cc1OC`, the TGI in experiment [1] is over 100 µM; in [2], over 100 µM; in experiment [3], 76.6 µM; in experiment [4] it was over 100 µM; in experiment [5] it was over 100 µM; in experiment [6], 89.1 µM. Also, the TGI in experiment [7], in experiment [8], in [9] and in [10] was over 100 µM in each case.

With `CCOC(=O)C(CC(C)C)NC(=O)CSc1nnc(COc2ccc(Cl)cc2)n1-c1ccccc1` (configuration not stated), the TGI in [1] is over 100 µM; in experiment [2], 23.8 µM; in experiment [3] it was 30.7 µM; in experiment [4] it was 33.4 µM; in experiment [5], 59.8 µM; in [6] it was 15.6 µM. Also, the TGI in [7] stood at 35.6 µM; in [8], 30 µM; in experiment [9], 39.7 µM; in experiment [10], 39.8 µM.

For `CSC1C(=O)Nc2ccc3ccccc3c21` (configuration not stated), the TGI in experiment [1] was over 100 µM; in experiment [2], 89.3 µM; in experiment [3], 35.9 µM; in [4], 33.6 µM; in [5] it was over 100 µM; in experiment [7], over 100 µM. The figures for the TGI in [8], in experiment [9] and in [10] were over 100 µM, 35.5 µM and 40.6 µM, respectively.

As for `NNc1nncc2[nH]cnc12`, the TGI in experiment [1], in experiment [2], in experiment [3], in experiment [4], in experiment [6] and in experiment [7] was over 100 µM each time. Moreover, the TGI in [8] and in experiment [9] was over 100 µM throughout.

Consider `O=C(CCC(=O)CC(O)(C(F)(F)F)C(F)(F)F)CC(O)(C(F)(F)F)C(F)(F)F`, for which the TGI in experiment [1], in experiment [2], in experiment [3], in experiment [4], in experiment [5] and in [6] was over 100 µM throughout. Further, the TGI in experiment [7] was over 100 µM; in experiment [9], over 100 µM; in [10], 49.4 µM.

As for `Oc1ccc(Cl)cc1-c1cc(-c2ccccc2)nc(NCN2CCCCC2)n1`, the TGI in experiment [1], in experiment [3], in [4], in experiment [5], in [6] and in experiment [7] was over 100 µM throughout. The TGI in [8], in experiment [9] and in [10] was over 100 µM each time.

For `CN(C)c1ccc(C=C2C(=O)N(c3ccccc3)N(c3ccccc3)C2=O)cc1`, the TGI in experiment [1], in experiment [3], in [4], in experiment [5], in experiment [6] and in experiment [7] was over 100 µM each time. The TGI in experiment [8] is over 100 µM; in experiment [9], over 100 µM; in experiment [10], 65.1 µM.
